Patent US12157746B2, “Tetrahydro-1H-pyrazino[2,1-a]isoindolylquinoline compounds for the treatment of autoimmune disease” (F. HOFFMANN-LA ROCHE AG, priority 2018, dated 2024)

biological target: T1, human TLR9 (Homo sapiens, UniProt Q9NR96); experiment: HEK293-Blue-hTLR-9 cells assay; format: cell-based; conditions: HEK293-Blue-hTLR9 cells, ODN2006 stimulation, 20 hrs, SEAP reporter; read-out: HEK/hTLR9 IC50
T1 sequence (Q9NR96 26-1032): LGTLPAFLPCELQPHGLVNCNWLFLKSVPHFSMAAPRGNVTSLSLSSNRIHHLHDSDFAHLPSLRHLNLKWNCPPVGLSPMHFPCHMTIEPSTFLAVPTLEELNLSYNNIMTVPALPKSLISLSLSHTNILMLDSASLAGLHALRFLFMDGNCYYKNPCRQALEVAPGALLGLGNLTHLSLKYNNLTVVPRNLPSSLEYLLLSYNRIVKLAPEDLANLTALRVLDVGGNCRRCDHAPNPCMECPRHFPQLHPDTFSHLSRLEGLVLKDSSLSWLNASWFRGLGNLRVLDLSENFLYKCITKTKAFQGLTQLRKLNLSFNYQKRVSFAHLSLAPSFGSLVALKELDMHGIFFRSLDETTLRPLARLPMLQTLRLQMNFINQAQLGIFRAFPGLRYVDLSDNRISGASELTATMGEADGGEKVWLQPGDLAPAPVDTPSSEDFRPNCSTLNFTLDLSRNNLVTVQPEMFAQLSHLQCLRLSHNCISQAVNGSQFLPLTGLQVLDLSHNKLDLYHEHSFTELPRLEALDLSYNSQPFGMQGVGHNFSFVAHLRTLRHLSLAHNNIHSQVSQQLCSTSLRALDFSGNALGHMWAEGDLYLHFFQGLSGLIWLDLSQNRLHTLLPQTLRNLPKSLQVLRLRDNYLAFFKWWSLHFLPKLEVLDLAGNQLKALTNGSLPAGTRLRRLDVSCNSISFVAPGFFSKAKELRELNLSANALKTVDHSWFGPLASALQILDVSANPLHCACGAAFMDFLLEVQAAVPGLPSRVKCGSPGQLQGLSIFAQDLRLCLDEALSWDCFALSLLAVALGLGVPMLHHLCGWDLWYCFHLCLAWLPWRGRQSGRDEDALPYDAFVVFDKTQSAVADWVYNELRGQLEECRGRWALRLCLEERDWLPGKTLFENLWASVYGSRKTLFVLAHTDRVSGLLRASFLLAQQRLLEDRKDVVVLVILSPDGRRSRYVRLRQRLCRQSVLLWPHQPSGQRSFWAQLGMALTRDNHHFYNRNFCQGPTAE
Outline: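 Antagonist mode in HEK293-Blue hTLR9 reporter cells (SEAP under NF-κB/AP-1 sites), stimulated with ODN2006 added from a 20 uM solution. Serially diluted compound (1% DMSO final) was incubated 20 hrs at 37° C. Supernatant SEAP was developed with QUANTI-Blue for 2 h at 37° C and read at 620˜655 nm.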

Compound | IC50 [nM]
CO[C@H]1CNC[C@@H]1Nc1ccc2c(c1)CN1[C@H](C)CN(c3ccc(C#N)c4ncccc34)C[C@H]21 [Example 62, 5-[(4R,10bS)-8-[[(3S,4S)-4-methoxypyrrolidin-3-yl]amino]-4-methyl-3,4,6,10b-tetrahydro-1H-pyrazino[2,1-a]isoindol-2-yl]quinoline-8-carbonitrile] | 84.5
C[C@@H]1CN(c2ccc(C#N)c3ncccc23)C[C@@H]2c3ccc(NC[C@@H]4C[C@H](F)CN4)cc3CN12 [Example 70, 5-[(4R,10bS)-8-[[(2S,4S)-4-fluoropyrrolidin-2-yl]methylamino]-4-methyl-3,4,6,10b-tetrahydro-1H-pyrazino[2,1-a]isoindol-2-yl]quinoline-8-carbonitrile] | 74
C[C@@H]1CN(c2ccc(C#N)c3ncccc23)C[C@@H]2c3ccc(N[C@@H]4CCCNC4)cc3CN12 [Example 65, 5-[(4R,10bS)-4-methyl-8-[[(3R)-3-piperidyl]amino]-3,4,6,10b-tetrahydro-1H-pyrazino[2,1-a]isoindol-2-yl]quinoline-8-carbonitrile] | 95.8
C[C@@H]1CN(c2ccc(C#N)c3ncccc23)C[C@@H]2c3ccc(NCC4(F)CNC4)cc3CN12 [Example 69, 5-[(4R,10bS)-8-[(3-fluoroazetidin-3-yl)methylamino]-4-methyl-3,4,6,10b-tetrahydro-1H-pyrazino[2,1-a]isoindol-2-yl]quinoline-8-carbonitrile] | 171
C[C@@H]1CN(c2ccc(C#N)c3ncsc23)C[C@@H]2c3ccc(N[C@H]4CNC[C@H]4F)cc3CN12 [Example 78, 7-[(4R,10bS)-8-[[(3S,4R)-4-fluoropyrrolidin-3-yl]amino]-4-methyl-3,4,6,10b-tetrahydro-1H-pyrazino[2,1-a]isoindol-2-yl]-1,3-benzothiazole-4-carbonitrile] | 83.6
C[C@@H]1CN(c2ccc(C#N)c3ncccc23)C[C@@H]2c3ccc(N4CCNCC4)cc3CN12 [Example 1, 5-[(4R,10bS)-4-methyl-8-piperazin-1-yl-3,4,6,10b-tetrahydro-1H-pyrazino[2,1-a]isoindol-2-yl]quinoline-8-carbonitrile] | 106
C[C@@H]1CN(c2ccc(C#N)c3ncccc23)C[C@@H]2c3cc(F)c(N4CC5CNCC(C4)O5)cc3CN12 [Example 85, 5-[(4R,10bS)-9-fluoro-4-methyl-8-(9-oxa-3,7-diazabicyclo[3.3.1]nonan-3-yl)-3,4,6,10b-tetrahydro-1H-pyrazino[2,1-a]isoindol-2-yl]quinoline-8-carbonitrile] | 151
C[C@@H]1CN(c2ccc(C#N)c3ncccc23)C[C@@H]2c3ccc(OC[C@@H]4C[C@H](F)CN4)cc3CN12 [Example 74, 5-[(4R,10bS)-8-[[(2S,4S)-4-fluoropyrrolidin-2-yl]methoxy]-4-methyl-3,4,6,10b-tetrahydro-1H-pyrazino[2,1-a]isoindol-2-yl]quinoline-8-carbonitrile] | 136
C[C@@H]1CN(c2ccc(C#N)c3ncccc23)C[C@@H]2c3ccc(C(=O)N4CCC(C)(N)CC4)cc3CN12 [Example 88, 5-[(4R,10bS)-8-(4-amino-4-methyl-piperidine-1-carbonyl)-4-methyl-3,4,6,10b-tetrahydro-1H-pyrazino[2,1-a]isoindol-2-yl]quinoline-8-carbonitrile] | 165
CO[C@@H]1CNC[C@H]1Nc1cc2c(cc1C)[C@H]1CN(c3ccc(C#N)c4ncccc34)C[C@@H](C)N1C2 [Example 63, 5-[(4R,10bS)-8-[[(3R,4R)-4-methoxypyrrolidin-3-yl]amino]-4,9-dimethyl-3,4,6,10b-tetrahydro-1H-pyrazino[2,1-a]isoindol-2-yl]quinoline-8-carbonitrile] | 72.7

The remaining compounds from weak to strong by IC50, led by results:

IC50 [nM] | Compound
168 | C[C@@H]1CN(c2ccc(C#N)c3ncccc23)C[C@@H]2c3cc(F)c(N4C[C@H](N)[C@@](C)(O)C4)cc3CN12 [Example 83, 5-[(4R,10bS)-8-[(3S,4S)-4-amino-3-hydroxy-3-methyl-pyrrolidin-1-yl]-9-fluoro-4-methyl-3,4,6,10b-tetrahydro-1H-pyrazino[2,1-a]isoindol-2-yl]quinoline-8-carbonitrile]
164 | [2H]c1ccc2c(N3C[C@@H](C)N4Cc5cc(N6CC7(CNCCO7)C6)ccc5[C@H]4C3)ccc(C#N)c2n1 [Example 90, 5-[(4R,10bS)-4-methyl-8-(5-oxa-2,8-diazaspiro[3.5]nonan-2-yl)-3,4,6,10b-tetrahydro-1H-pyrazino[2,1-a]isoindol-2-yl]-2-deuterio-quinoline-8-carbonitrile]
141 | CO[C@H]1CNCC[C@H]1Nc1ccc2c(c1)CN1[C@H](C)CN(c3ccc(C#N)c4ncccc34)C[C@H]21 [Example 66, 5-[(4R,10bS)-8-[[(3S,4R)-3-methoxy-4-piperidyl]amino]-4-methyl-3,4,6,10b-tetrahydro-1H-pyrazino[2,1-a]isoindol-2-yl]quinoline-8-carbonitrile]
125 | CO[C@H]1CNC[C@@H]1N(C)c1ccc2c(c1)CN1[C@H](C)CN(c3ccc(C#N)c4ncccc34)C[C@H]21 [Example 64, 5-[(4R,10bS)-8-[[(3S,4S)-4-methoxypyrrolidin-3-yl]-methyl-amino]-4-methyl-3,4,6,10b-tetrahydro-1H-pyrazino[2,1-a]isoindol-2-yl]quinoline-8-carbonitrile]
113 | C[C@@H]1CN(c2ccc(Cl)c3ncccc23)C[C@@H]2c3ccc(N[C@H]4CNC[C@H]4F)cc3CN12 [Example 79, (4R,10b)-2-(8-chloro-5-quinolyl)-N-[(3S,4R)-4-fluoropyrrolidin-3-yl]-4-methyl-3,4,6,10b-tetrahydro-1H-pyrazino[2,1-a]isoindol-8-amine]
113 | CO[C@@H]1CNC[C@@H]1Nc1ccc2c(c1)CN1[C@H](C)CN(c3ccc(C#N)c4ncccc34)C[C@H]21 [Example 60, 5-[(4R,10bS)-8-[[(3S,4R)-4-methoxypyrrolidin-3-yl]amino]-4-methyl-3,4,6,10b-tetrahydro-1H-pyrazino[2,1-a]isoindol-2-yl]quinoline-8-carbonitrile]
108 | C[C@@H]1CN(c2ccc(C#N)c3ncccc23)C[C@@H]2c3ccc(N4C[C@H]5CNCCN5C4=O)cc3CN12 [Example 72, 5-[(4R,10bS)-8-[(8aR)-3-oxo-1,5,6,7,8,8a-hexahydroimidazo[1,5-a]pyrazin-2-yl]-4-methyl-3,4,6,10b-tetrahydro-1H-pyrazino[2,1-a]isoindol-2-yl]quinoline-8-carbonitrile]
105 | C[C@@H]1CN(c2ccc(C#N)c3ncccc23)C[C@@H]2c3ccc(NCC4COCCN4)cc3CN12 (stereo partly drawn) [Example 57, 5-[(4R,10bS)-4-methyl-8-(morpholin-3-ylmethylamino)-3,4,6,10b-tetrahydro-1H-pyrazino[2,1-a]isoindol-2-yl]quinoline-8-carbonitrile]
93 | CO[C@H]1CNC[C@H]1Nc1ccc2c(c1)CN1[C@H](C)CN(c3ccc(C#N)c4ncccc34)C[C@H]21 [Example 61, 5-[(4R,10bS)-8-[[(3R,4S)-4-methoxypyrrolidin-3-yl]amino]-4-methyl-3,4,6,10b-tetrahydro-1H-pyrazino[2,1-a]isoindol-2-yl]quinoline-8-carbonitrile]
92.1 | C[C@@H]1CN(c2ccc(C#N)c3ncccc23)C[C@@H]2c3ccc(N[C@H]4CNCCOC4)cc3CN12 [Example 56B, 5-[(4R,10bS)-4-methyl-8-[[(6S)-1,4-oxazepan-6-yl]amino]-3,4,6,10b-tetrahydro-1H-pyrazino[2,1-a]isoindol-2-yl]quinoline-8-carbonitrile]
84.3 | C[C@@H]1CN(c2ccc(C#N)c3ncccc23)C[C@@H]2c3ccc(NC[C@@H]4CNCCO4)cc3CN12 [Example 58, 5-[(4R,10bS)-4-methyl-8-[[(2S)-morpholin-2-yl]methylamino]-3,4,6,10b-tetrahydro-1H-pyrazino[2,1-a]isoindol-2-yl]quinoline-8-carbonitrile]
73.5 | C[C@@H]1CN(c2ccc(C#N)c3ncccc23)C[C@@H]2c3ccc(NC[C@H]4CNCCO4)cc3CN12 [Example 59, 5-[(4R,10bS)-4-methyl-8-[[(2R)-morpholin-2-yl]methylamino]-3,4,6,10b-tetrahydro-1H-pyrazino[2,1-a]isoindol-2-yl]quinoline-8-carbonitrile]
63.6 | C[C@@H]1CN(c2ccc(C#N)c3ncccc23)C[C@@H]2c3cccc(NCCN4CC[C@H](O)C4)c3CN12 [Example 80, 5-[(4R,10bS)-7-[2-[(3S)-3-hydroxypyrrolidin-1-yl]ethylamino]-4-methyl-3,4,6,10b-tetrahydro-1H-pyrazino[2,1-a]isoindol-2-yl]quinoline-8-carbonitrile]
